Source: patent publication US6855801B1, “Peptides modulating activities of heparin other glycosaminoglycans or proteoglycans” (Thomas Jefferson University, priority 1999, dated 2005)

Key:
[1] = Affinity coelectrophoresis (ACE) of radiolabeled heparin through peptides; assay type: binding, pig
Excerpt: Preparation of Radiolabeled Heparin—Whole heparin from pig intestinal mucosa (Sigma) was tyramine end-labeled and radiolabeled with Na^125I (Amersham, Pharmacia Biotech, Inc., Piscataway, N.J.) to an average specific activity ≅1.0×10^7 CPM/μg as described^59. Radiolabeled heparin was fractionated on Sephadex G-100 (Bio-Rad Laboratories, Hercules, Calif.) and the final ≅12% of material to elute was retained as the low Mr material of ≦6,000 (Jordan, R., D. Beeler, and R. Rosenberg, J Biol Chem, 254:2902-2913, 1979; Laurent, T. C., et al., Biochem J, 175:691-701, 1978).
Briefly, peptides were dissolved in 1×ACE running buffer, 50 mM sodium 3-(N-morpholino)-2-hydroxypropanesulfonate (MOPSO, Sigma)/125 mM sodium acetate, pH 7.0, and serially diluted in running buffer at 2× concentrations. Peptides were then mixed 1:1 with 2% agarose/1% CHAPS, 3-[(3-cholamidopropyl)dimethylammonio]-1-propanesulfonate, (Boehringer Mannheim, Indianapolis, Ind.), and loaded into wells of a 1% agarose gel. Radiolabeled heparin or HUVEC PGs were then loaded in a slot on the […] side of the gel, and electrophoresed through the peptide-containing wells, towards the cathode. Gels were dried and PG mobility was measured with a Phosphorimager (Molecular Dynamics, Sunnyvale, Calif.) by scanning each protein lane and determining the relative radioactivity content per. 88-μm pixel through the length of the lane. Retardation coefficient (R) measurements, binding isotherm curve fittings, and apparent Kd value determinations were calculated as detailed previously (Lee, M. K., and A. D. Lander, Proc Nat Acad Sci USA, 88:2768-2772, 1991; San Antonio, J. D., et al, Biochem, 32:47464755, 1993).
Some peptides were also analyzed by ACE for heparin-binding under reducing conditions. Thus, after serial peptide dilution, β-mercaptoethanol (β-ME) was added at 5% to each peptide sample, and these were mixed 1:1 with 2% agarose/1% CHAPS/5% β-ME, and added to the ACE gel sample wells as usual.

Lovenox = assay: Reversal of anti-Factor Xa activity in vitro (Stachrom Heparin chromogenic assay), Lovenox; assay type: biochemical, human; settings: peptide 0.6 mg/ml in plasma; 0.5 U/ml anti-Factor Xa activity
Procedure: (§1) Solutions of Lovenox, Orgaran, or unfractionated heparin (Sigma) were prepared in 0.32% sodium citrate or in normal human plasma to contain 0.5 U/ml anti-FXa activity. Calibrations were made against the standards provided by the Stachrom Heparin (Diagnostica Stago) assay kit. The heparin/ATIII complex was allowed to form at 37° C. for 2 minutes, peptide was added, the mixture was incubated for an additional 1-5 minutes, and then Factor Xa was added, and finally the color reagent, for one minute, and the absorbance was read at 405 nm. The increase in absorbance from the heparinized control to the test sample was divided by the difference in A405 between the heparinized control and the control without heparin to obtain the % reversal.

Orgaran = assay: Reversal of anti-Factor Xa activity in vitro (Stachrom Heparin chromogenic assay), Orgaran; assay type: biochemical, human; settings: peptide 0.6 mg/ml in plasma; 0.5 U/ml anti-Factor Xa activity
Procedure: as §1

unfractionated heparin [2] = assay: Reversal of anti-Factor Xa activity in vitro (Stachrom Heparin chromogenic assay), unfractionated heparin; assay type: biochemical, human; settings: peptide 0.6 mg/ml in plasma; 0.5 U/ml anti-Factor Xa activity
Procedure: as §1

unfractionated heparin [3] = assay: Reversal of anti-thrombin effects of unfractionated heparin in vitro (thrombin clotting time in plasma); assay type: biochemical, human; settings: heparin 0.5 U/ml; thrombin standardized to clotting time 20-22 seconds
Procedure: Plasma was obtained from normal donors. Thrombin concentration (human alpha thrombin, Enzyme Research Laboratories, South Bend, Ind.) was standardized to produce a clotting time of 20-22 seconds. Heparin was added at 0.5 IU anti-thrombin activity/ml. The clotting time for heparin alone was approximately 3 minutes. To test the effects of the peptides in this system, one minute after addition of heparin to the plasma, the peptides were added in concentrations ranging from 1-200 μg/ml. After one minute, thrombin was added and the clotting time determined. The effects of the peptides were concentration dependent. The clotting time was restored to normal values in all samples at the dosages shown below in Table III. The ability of the peptides to neutralize heparin inhibition of thrombin clotting time was consistent with the binding affinities shown in Table I, and with the effectiveness against low molecular weight heparin anti-Factor Xa activity in Table II.

| heparin-binding affinity in words ([1]; ACE, low Mr heparin) | heparin-binding under reducing conditions in words ([1]; ACE with β-ME) | Sequence | Percent Reversal of anti-Factor Xa Activity, Lovenox (Lovenox) | Percent Reversal of anti-Factor Xa Activity, Orgaran (Orgaran) | Percent Reversal of anti-Factor Xa Activity, Heparin (unfractionated) (unfractionated heparin [2]) | μg peptide/ml heparinized plasma needed to normalize thrombin time (unfractionated heparin [3]) |
| --- | --- | --- | --- | --- | --- | --- |
| weak | – | AKKARAAKKARA [(AKKARA)2, XBBXBX tandem repeat peptide] | 61.5% | 37.0% | 67.0% | >50 μg peptide/ml heparinized plasma |
| – | negligible heparin-binding | YPARRARYQWVRCKP | 25.0% | 16.5% | 77.0% | 15 μg peptide/ml heparinized plasma |
